Reference: patent EP2253324A1, “Use of a casein-derived peptide and compositions thereof as antihypertensive” (CONSEJO SUPERIOR DE INVESTIGACIONES CIENTIFICAS, priority 2009, dated 2010)
Where two headings read alike, the source gives them in different places. Where no end group is shown, it is not given here.

Key:
[1] = biological target: T1, Angiotensin-converting enzyme (Oryctolagus cuniculus, UniProt P12822); test: ACE-inhibitory activity, spectrophotometric assay (Cushman & Cheung, modified); type: biochemical; conditions: synthetic peptides
T1 sequence (P12822 34-1310): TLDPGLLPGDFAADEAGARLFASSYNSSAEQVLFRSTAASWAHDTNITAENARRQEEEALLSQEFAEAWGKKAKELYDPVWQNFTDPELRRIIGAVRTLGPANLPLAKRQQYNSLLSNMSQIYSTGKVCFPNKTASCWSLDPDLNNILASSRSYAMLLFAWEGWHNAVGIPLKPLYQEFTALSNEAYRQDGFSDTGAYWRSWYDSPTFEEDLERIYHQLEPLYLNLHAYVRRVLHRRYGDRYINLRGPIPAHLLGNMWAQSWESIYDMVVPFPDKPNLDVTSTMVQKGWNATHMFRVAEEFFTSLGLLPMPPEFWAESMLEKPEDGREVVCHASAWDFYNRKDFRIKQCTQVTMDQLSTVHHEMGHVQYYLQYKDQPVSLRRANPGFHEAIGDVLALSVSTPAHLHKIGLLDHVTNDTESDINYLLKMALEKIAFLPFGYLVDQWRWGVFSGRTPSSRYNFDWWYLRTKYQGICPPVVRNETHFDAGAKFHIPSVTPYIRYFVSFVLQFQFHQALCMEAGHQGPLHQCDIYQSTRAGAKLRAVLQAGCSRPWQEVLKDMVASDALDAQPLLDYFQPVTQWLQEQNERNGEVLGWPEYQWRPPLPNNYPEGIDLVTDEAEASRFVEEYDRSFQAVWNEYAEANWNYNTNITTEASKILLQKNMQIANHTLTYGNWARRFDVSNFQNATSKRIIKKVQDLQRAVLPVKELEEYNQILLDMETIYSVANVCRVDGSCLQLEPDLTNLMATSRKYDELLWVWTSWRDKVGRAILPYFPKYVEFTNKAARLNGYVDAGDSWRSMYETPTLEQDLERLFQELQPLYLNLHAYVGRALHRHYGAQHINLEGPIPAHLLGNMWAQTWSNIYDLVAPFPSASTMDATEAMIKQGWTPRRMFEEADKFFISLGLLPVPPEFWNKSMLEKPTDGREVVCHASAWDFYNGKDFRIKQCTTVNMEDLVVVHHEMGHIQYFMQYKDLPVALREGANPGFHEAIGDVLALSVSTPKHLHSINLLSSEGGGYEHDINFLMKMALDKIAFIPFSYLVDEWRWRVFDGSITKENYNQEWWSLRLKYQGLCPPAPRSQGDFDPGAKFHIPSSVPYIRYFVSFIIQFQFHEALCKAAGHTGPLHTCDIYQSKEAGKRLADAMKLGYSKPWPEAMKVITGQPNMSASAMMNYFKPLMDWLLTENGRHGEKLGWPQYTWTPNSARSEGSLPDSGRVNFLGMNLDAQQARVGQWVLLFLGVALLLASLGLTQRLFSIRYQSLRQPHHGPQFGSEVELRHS
Procedure: ACE-inhibitory activity was measured by Cushman & Cheung 1971 (Biochemical Pharmacology, 20, 1637-1648) spectrophotometric assay with some modifications, as reported by (Quirós et al., 2007). For this purpose, protein concentration of the aliquots of the pepsin hydrolysate was determined by the Kjeldahl method. The protein content of the fractions collected from HPLC was estimated by the bicinchoninic acid assay (Pierce, Rockford, IL, USA) using bovine serum albumin, as standard, and peptide concentration of the chemically synthesized peptides was based in the dry weight of the peptides. Chemical synthesized peptides were purchased from GenScript Corp. (Piscataway, NJ, USA).

ACE = ACE (Homo sapiens, UniProt P12821); conditions: cited from earlier work; for IC50: literature values; for ACE-inhibitory activity: literature, in vitro
ACE, sequence (P12821 30-1306, species assumed): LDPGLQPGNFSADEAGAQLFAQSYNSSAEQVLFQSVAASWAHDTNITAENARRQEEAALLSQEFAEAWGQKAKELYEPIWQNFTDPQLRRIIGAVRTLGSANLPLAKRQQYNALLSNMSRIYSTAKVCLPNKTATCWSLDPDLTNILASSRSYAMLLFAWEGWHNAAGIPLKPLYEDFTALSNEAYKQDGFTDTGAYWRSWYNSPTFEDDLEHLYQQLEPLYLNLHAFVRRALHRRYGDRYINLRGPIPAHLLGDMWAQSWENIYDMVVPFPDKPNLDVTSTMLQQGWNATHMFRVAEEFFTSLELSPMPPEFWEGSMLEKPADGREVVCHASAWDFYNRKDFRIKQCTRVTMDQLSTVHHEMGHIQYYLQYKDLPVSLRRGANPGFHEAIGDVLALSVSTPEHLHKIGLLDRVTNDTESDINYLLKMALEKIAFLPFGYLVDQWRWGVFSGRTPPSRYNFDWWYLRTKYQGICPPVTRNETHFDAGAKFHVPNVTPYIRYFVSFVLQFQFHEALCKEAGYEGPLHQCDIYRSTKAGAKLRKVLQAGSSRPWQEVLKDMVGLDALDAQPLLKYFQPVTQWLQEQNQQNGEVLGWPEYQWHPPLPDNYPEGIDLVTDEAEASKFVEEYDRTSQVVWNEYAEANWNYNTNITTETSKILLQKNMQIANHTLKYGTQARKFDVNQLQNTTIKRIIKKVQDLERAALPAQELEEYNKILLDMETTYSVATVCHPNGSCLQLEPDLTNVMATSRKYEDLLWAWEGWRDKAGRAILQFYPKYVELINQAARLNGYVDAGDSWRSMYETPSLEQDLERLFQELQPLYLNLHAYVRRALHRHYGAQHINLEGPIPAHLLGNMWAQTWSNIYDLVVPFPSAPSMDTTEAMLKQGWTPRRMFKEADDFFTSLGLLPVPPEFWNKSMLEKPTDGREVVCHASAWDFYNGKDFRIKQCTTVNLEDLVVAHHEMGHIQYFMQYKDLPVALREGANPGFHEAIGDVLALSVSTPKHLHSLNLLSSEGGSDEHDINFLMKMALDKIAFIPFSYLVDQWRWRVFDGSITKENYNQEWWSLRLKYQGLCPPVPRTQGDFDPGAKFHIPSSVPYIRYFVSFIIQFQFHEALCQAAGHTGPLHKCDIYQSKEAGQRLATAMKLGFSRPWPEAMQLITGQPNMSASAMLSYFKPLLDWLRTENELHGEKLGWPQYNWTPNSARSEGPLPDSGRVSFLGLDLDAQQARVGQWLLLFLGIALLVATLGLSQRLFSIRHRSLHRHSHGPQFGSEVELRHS

SHR = conditions: literature; cited from earlier work
human volunteers = conditions: literature; cited from earlier work
SHR rats = test: Systolic blood pressure in spontaneously hypertensive rats, tail-cuff method; type: in vivo; conditions: single oral dose 5 mg kg^-1, followed up to 24 hours
Procedure: All procedures were carried out in accordance with conventional guidelines for experimentation with animals. Twelve-week old male SHR rats were used (Janvier, France); they were housed in groups of four per cage in a regulated environment with a 12 h light/dark cycle in a standard experimental laboratory of the Animal Experimentation Service of the Salamanca University (N°PAE SA001). The animals were deprived of solid diet 12 hours before experiments began but received a nutritive solution of 8% sucrose in 0.2% NaCl to avoid excessive dehydratation. The rats received a single dose of the synthesized peptides or zofenopril (5 mg kg^-1) dissolved in ultrapure water and the control group received the same volume of water. Systolic blood pressure (SBP) was measured in awake rats with an automated multichannel system, using the tail-cuff method with a photoelectric sensor (Niprem 546, Cibertec SA, Spain) as described in Guerrero et al., 2003 (Journal of Cardiovascular Pharmacology 42: 348-355). SBP was measured before administration, and also at 2, 4, 6, 8, 10 and 24 hours post-administration. The changes in SBP were expressed as the differences before and after administration of the different products. Unpaired student's t-test was used to compare groups.

[2] = mean ± standard error (n=3), read-out: IC50± SE

Row | IC50 [1, 2] [µM] | Substance | IC50 (ACE) [µM] | further results
1 | 476 ± 41.7 | FVAPFPEV [FVAPFPEV] | – | –
2 | 34.4 ± 2.22 | HLPLPLL [HLPLPLL] | – | –
3 | – | SEQ ID NO: 7: literature ACE-inhibitory sequence included in peptide SEQ ID NO: 6 (VTSTAV) | 52 | –
4 | – | αs1-casein f(23-27): literature peptide with ACE-inhibitory activity but no hypotensive effect in SHR (FFVAP; UniProt P02662 38-42, looked up, fragment) | – | hypotensive effect in SHR (SHR): no hypotensive effect; ACE-inhibitory activity (ACE): potent ACE-inhibitory activity
5 | 20.1 ± 1.25 | YQKFPQY [YQKFPQY] | – | IC50 ([1]; values in text, read-out: IC50): < 20 µM
6 | – | β-lactoglobulin f(142-148): literature peptide with in vitro ACE-inhibitory activity (ALPMHIR; UniProt P02754 158-164, looked up, fragment) | – | effect in human volunteers (human volunteers): did not have effect; ACE-inhibitory activity (ACE): in vitro ACE-inhibitory activity
7 | 363 ± 23.6 | VAPFPEVF [VAPFPEVF] | – | –
8 | – | SEQ ID NO: 5: ACE-inhibitory peptide previously described in the literature, shares five residues with SEQ ID NO: 4 (ENLLRF) | 82.4 | –
9 | – | SEQ ID NO: 3: αs1-CN peptide previously described as an ACE inhibitor (DAYPSGAW) | 98 | –
10 | – | SEQ ID O: 8: literature ACE-inhibitory peptide whose C-terminal tripeptide is LQY (FPQYLQY) | 14 | –
11 | 6.58 ± 0.5 | AYFYPEL [AYFYPEL] | – | IC50 ([1]; values in text, read-out: IC50): < 20 µM

Row | Substance | IC50 [1, 2] [µM] | IC50 (ACE) [µM] | further results
12 | RYLGY [RYLGY] | 0.71 ± 0.08 | – | IC50 ([1]; values in text, read-out: IC50): < 20 µM; antihypertensive effect (change in SBP), in words (SHR rats): lowered SBP in a progressive and maintained manner
